# Assay results taken from PubChem BioAssay (NCI).
# “And” between values parts separate entries of the source, which are not always exact repeats. Identical values can stand only once.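 Results reflect a 48-hour exposure of cells in 96-well plates to compound at five concentrations. GI50 = concentration required for 50% inhibition of growth. TGI denotes the concentration required for complete inhibition of growth.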
# Tests used:
# Assay in all cases: NCI-60 cell line screen, 48 h
# CCRF-CEM leukemia = tested on: CCRF-CEM leukemia
# HOP-62 NSCLC = tested on: HOP-62 NSCLC
# M14 melanoma = tested on: M14 melanoma
# NCI-H226 lung = tested on: NCI-H226 lung
# NCI-H460 lung = tested on: NCI-H460 lung
# OVCAR-5 ovarian = tested on: OVCAR-5 ovarian
# SR leukemia = tested on: SR leukemia
# MDA-MB-231 breast = tested on: MDA-MB-231 breast
# T-47D breast = tested on: T-47D breast
# NCI/ADR-RES ovarian = tested on: NCI/ADR-RES ovarian
compound,measurement,setting,value
COC(=O)/C(=C/c1ccc(OC)cc1)C(C(=O)O)=C1CCCC1,TGI,CCRF-CEM leukemia,> 100 µM
same,TGI,HOP-62 NSCLC,> 100 µM
same,TGI,M14 melanoma,> 100 µM
same,TGI,NCI-H226 lung,> 100 µM
same,TGI,NCI-H460 lung,> 100 µM
same,TGI,OVCAR-5 ovarian,> 100 µM
same,TGI,SR leukemia,> 100 µM
COc1ccc2c(c1OCC(=O)O)C(=O)C(CCC(=O)O)CC2 (centres undefined),TGI,CCRF-CEM leukemia,> 100 µM
same,TGI,HOP-62 NSCLC,> 100 µM
same,TGI,M14 melanoma,> 100 µM
same,TGI,NCI-H460 lung,> 100 µM
CCOc1ccc(/C=C2\N=C(c3ccc([N+](=O)[O-])cc3)OC2=O)cc1,TGI,CCRF-CEM leukemia,> 100 µM
same,TGI,HOP-62 NSCLC,> 100 µM
same,TGI,M14 melanoma,> 100 µM
same,TGI,MDA-MB-231 breast,> 100 µM
same,TGI,NCI-H226 lung,> 100 µM
same,TGI,NCI-H460 lung,> 100 µM
same,TGI,OVCAR-5 ovarian,> 100 µM
same,TGI,SR leukemia,> 100 µM
same,TGI,T-47D breast,> 100 µM
COc1ccc(-c2nnc3n(C)c(=O)c4ccccc4n23)cc1N,GI50,CCRF-CEM leukemia,2.75 µM
same,TGI,CCRF-CEM leukemia,> 100 µM
same,GI50,HOP-62 NSCLC,0.0482 µM
same,TGI,HOP-62 NSCLC,> 100 µM
same,GI50,M14 melanoma,0.0475 µM
same,TGI,M14 melanoma,> 100 µM
same,GI50,MDA-MB-231 breast,3.92 µM
same,TGI,MDA-MB-231 breast,> 100 µM
same,GI50,NCI-H226 lung,> 100 µM
same,TGI,NCI-H226 lung,> 100 µM
same,GI50,NCI-H460 lung,0.0508 µM
same,TGI,NCI-H460 lung,> 100 µM
same,GI50,NCI/ADR-RES ovarian,0.0656 µM
same,TGI,NCI/ADR-RES ovarian,> 100 µM
same,GI50,OVCAR-5 ovarian,9.26 µM
same,TGI,OVCAR-5 ovarian,> 100 µM
same,GI50,SR leukemia,0.0346 µM
same,TGI,SR leukemia,> 100 µM
COC(=O)c1ccc2c(c1)C(=O)c1c-2n(CCCN=[N+]=[N-])c(=O)c2cc(OC)c(OC)cc12,GI50,CCRF-CEM leukemia,> 100 µM
same,TGI,CCRF-CEM leukemia,> 100 µM
same,GI50,HOP-62 NSCLC,> 100 µM
same,TGI,HOP-62 NSCLC,> 100 µM
same,GI50,M14 melanoma,> 100 µM
same,TGI,M14 melanoma,> 100 µM
same,GI50,MDA-MB-231 breast,> 100 µM
same,TGI,MDA-MB-231 breast,> 100 µM
same,GI50,NCI-H226 lung,> 100 µM
same,TGI,NCI-H226 lung,> 100 µM
same,GI50,NCI-H460 lung,> 100 µM
same,TGI,NCI-H460 lung,> 100 µM
same,GI50,NCI/ADR-RES ovarian,> 100 µM
same,TGI,NCI/ADR-RES ovarian,> 100 µM
same,GI50,OVCAR-5 ovarian,> 100 µM
same,TGI,OVCAR-5 ovarian,> 100 µM
same,GI50,SR leukemia,3.57 µM
same,TGI,SR leukemia,56 µM
CC1(C)COC(c2cccc3c2C(=O)c2cccc(Cl)c2-3)=N1,TGI,CCRF-CEM leukemia,> 100 µM
same,TGI,M14 melanoma,> 100 µM
same,TGI,NCI-H460 lung,> 100 µM
same,TGI,OVCAR-5 ovarian,> 100 µM
O=C(Nc1cccc(C(F)(F)F)c1)c1ccc(NC2=C(Cl)C(=O)N(Cc3ccc(Cl)cc3Cl)C2=O)cc1,GI50,CCRF-CEM leukemia,2.27 µM
same,TGI,CCRF-CEM leukemia,5.46 µM
same,GI50,HOP-62 NSCLC,18 µM
same,TGI,HOP-62 NSCLC,32.2 µM
same,GI50,M14 melanoma,15.3 µM
same,TGI,M14 melanoma,32.4 µM
same,GI50,MDA-MB-231 breast,12.5 µM
same,TGI,MDA-MB-231 breast,27.6 µM
same,GI50,NCI-H226 lung,5.92 µM
same,TGI,NCI-H226 lung,24 µM
same,GI50,NCI-H460 lung,8.38 µM
same,TGI,NCI-H460 lung,31 µM
same,GI50,SR leukemia,1.83 µM
same,TGI,SR leukemia,3.93 µM
same,GI50,T-47D breast,2.8 µM
same,TGI,T-47D breast,> 100 µM
CC12CCC(=O)C[C@H]1CCC(OC=O)C2Br (some centres undefined),TGI,CCRF-CEM leukemia,> 100 µM
same,TGI,HOP-62 NSCLC,> 100 µM
same,TGI,M14 melanoma,> 100 µM
same,TGI,NCI-H226 lung,> 100 µM
same,TGI,NCI-H460 lung,> 100 µM
same,TGI,OVCAR-5 ovarian,> 100 µM
same,TGI,SR leukemia,> 100 µM
COC(=O)C1CCCC2(C1)OCCO2 (centres undefined),TGI,CCRF-CEM leukemia,> 100 µM
same,TGI,HOP-62 NSCLC,> 100 µM
same,TGI,M14 melanoma,> 100 µM
same,TGI,NCI-H226 lung,> 100 µM
same,TGI,NCI-H460 lung,> 100 µM
same,TGI,OVCAR-5 ovarian,> 100 µM
same,TGI,SR leukemia,> 100 µM
C/C(CC(=O)Nc1ccc(C)c(C)c1)=N\N(c1ccccc1)c1ccccc1,TGI,CCRF-CEM leukemia,64.4 µM
same,TGI,HOP-62 NSCLC,> 100 µM
same,TGI,M14 melanoma,> 100 µM
same,TGI,NCI-H226 lung,> 100 µM
same,TGI,NCI-H460 lung,> 100 µM
same,TGI,OVCAR-5 ovarian,> 100 µM
same,TGI,SR leukemia,51.2 µM
COC(=O)/C(C#N)=C1\N=NNN1c1ccc(OC)cc1,TGI,CCRF-CEM leukemia,> 100 µM
same,TGI,M14 melanoma,> 100 µM
same,TGI,NCI-H226 lung,> 100 µM
same,TGI,NCI-H460 lung,> 100 µM
CCOC(=O)N[C@H]1CCc2cc(OC)c(OC)c(OC)c2-c2ccc(SC)c(=O)cc21,TGI,CCRF-CEM leukemia,> 100 µM
same,TGI,HOP-62 NSCLC,> 100 µM
same,TGI,M14 melanoma,21.7 µM and > 27.1 µM
same,TGI,NCI-H226 lung,3.29 µM
same,TGI,NCI-H460 lung,> 100 µM
same,GI50,NCI/ADR-RES ovarian,0.0319 µM
same,TGI,NCI/ADR-RES ovarian,> 100 µM
same,GI50,OVCAR-5 ovarian,< 0.01 µM
same,TGI,OVCAR-5 ovarian,> 100 µM
same,TGI,SR leukemia,> 100 µM
same,TGI,T-47D breast,> 100 µM
CCOC(=O)c1nc2c(OC)nn(O)cc-2c1[N+](=O)[O-],TGI,CCRF-CEM leukemia,50.9 µM
same,TGI,HOP-62 NSCLC,> 100 µM
same,TGI,M14 melanoma,36.4 µM
same,TGI,NCI-H226 lung,79.6 µM
same,TGI,NCI-H460 lung,49.2 µM
same,TGI,OVCAR-5 ovarian,33.7 µM
Cc1nc(Nc2ccc(Cl)cc2)sc1C(=O)NNC(=S)NN,TGI,CCRF-CEM leukemia,88.5 µM
same,TGI,HOP-62 NSCLC,33 µM
same,TGI,M14 melanoma,35.1 µM
same,TGI,NCI-H226 lung,38 µM
same,TGI,NCI-H460 lung,38.3 µM
same,TGI,OVCAR-5 ovarian,31.4 µM
O=C(Nc1cccc(Cl)c1)C(=O)C(C(=O)c1ccc2ccccc2c1)C1OC(=O)c2ccccc21 (centres undefined),TGI,CCRF-CEM leukemia,52.4 µM
same,TGI,HOP-62 NSCLC,37.3 µM
same,TGI,M14 melanoma,36.7 µM
same,TGI,NCI-H226 lung,11.5 µM
same,TGI,NCI-H460 lung,30.5 µM
same,TGI,OVCAR-5 ovarian,59.6 µM
Cc1ccc(C)c(NC(=O)c2cccc([N+](=O)[O-])c2O)c1,TGI,CCRF-CEM leukemia,> 100 µM
same,TGI,HOP-62 NSCLC,47.1 µM
same,TGI,M14 melanoma,> 100 µM
same,TGI,NCI-H226 lung,68.8 µM
same,TGI,NCI-H460 lung,68.4 µM
same,TGI,OVCAR-5 ovarian,> 100 µM
N#C/C(=C\c1ccc2ccccc2c1)C(=O)c1ccccc1,TGI,CCRF-CEM leukemia,63.7 µM
same,TGI,HOP-62 NSCLC,51.4 µM
same,TGI,M14 melanoma,> 88.4 µM
same,TGI,NCI-H226 lung,> 100 µM
same,TGI,NCI-H460 lung,> 100 µM
same,TGI,OVCAR-5 ovarian,> 100 µM
same,TGI,SR leukemia,> 100 µM
same,TGI,T-47D breast,> 100 µM
Cc1cc2c(=O)c3ccccc3[nH]c2c(C(N)=O)c1C,TGI,CCRF-CEM leukemia,> 100 µM
same,TGI,M14 melanoma,> 100 µM
same,TGI,NCI-H226 lung,> 100 µM
same,TGI,NCI-H460 lung,> 100 µM
same,TGI,OVCAR-5 ovarian,> 100 µM
